We go through twelve compounds from patent publication US4391816A, “N-(Naphthalenylthioxomethyl)aminoacid derivatives” (Ayerst, McKenna & Harrison Inc., priority 1981, dated 1983).

Assay [1] concerns the target T1, aldose reductase (Bos taurus, UniProt P16116).
T1 construct: preparation of the enzyme from bovine lens; from tissue; host or cells: bovine lens
Description: in vitro aldose reductase inhibition (enzyme from bovine lens, modified Hayman and Kinoshita procedure). It counts as biochemical. Particulars: for inhibition at 10 µM: 10^-5 molar, read-out: % Inhibition at Different Molar Concentrations (in vitro), 10^-5; for inhibition at 1 µM: 10^-6 molar, read-out: % Inhibition at Different Molar Concentrations (in vitro), 10^-6; for inhibition at 0.1 µM: 10^-7 molar, read-out: % Inhibition at Different Molar Concentrations (in vitro), 10^-7. Here is the method: In the present case the procedure of Hayman and Kinoshita is modified in that the final chromatography step is omitted in the preparation of the enzyme from bovine lens.
The following results were obtained when the compounds of this invention were evaluated in the above in vitro test.

In assay [2] the test system is aldose reductase. Particulars: reported in the literature; cited from earlier work.

As to `CC(C(=O)O)N(C)C(=S)c1cccc2c(Br)cccc12` (centres unmarked) [R^1=CH3, R^2=CH3, R^3=5-Br, n=O *], in assay [1], the inhibition at 10 µM was determined as 18%.
As for `CN(CC(=O)O)C(=S)c1cccc2ccc(Br)cc12` [R^1=CH3, R^2=H, R^3=7-Br, n=O, N-[(7-bromo-1-naphthalenyl)thioxomethyl]-N-methylglycine], in assay [1], the inhibition at 10 µM is 86%, the inhibition at 1 µM came out at 58% and the inhibition at 0.1 µM amounted to 15%.
Turning to `CN(CC(=O)O)C(=S)c1cc(Br)cc2ccccc12` [R^1=CH3, R^2=H, R^3=3-Br, n=O, N-[(3-Bromo-1-naphthalenyl)thioxomethyl]-N-methylglycine], in assay [1], the inhibition at 10 µM stood at 90%, the inhibition at 1 µM was 74% and the inhibition at 0.1 µM was determined as 28%.
For the compound `CN(CCCC(=O)O)C(=S)c1cccc2c(Br)cccc12` [R^1=CH3, R^2=H, R^3=5-Br, n=2, N-[(5-bromo-1-naphthalenyl)thioxomethyl]-N-methyl-4-aminobutanoic acid], in assay [1], the inhibition at 10 µM amounted to 37%.
Consider `CN(CC(=O)O)C(=S)c1cccc2cc(Br)ccc12` [R^1=CH3, R^2=H, R^3=6-Br, n=O, N-[(6-bromo-1-naphthalenyl)thioxomethyl)-N-methylglycine], for which, in assay [1], the inhibition at 10 µM came to 91%, the inhibition at 1 µM came out at 75% and the inhibition at 0.1 µM came to 18%.
In the case of `O=C(O)[C@@H]1CCCN1C(=S)c1cccc2c(Br)cccc12` [R^1 R^2=CH2 CH2 CH2, R^3=5-Br, n=O, N-[(5-bromo-1-naphthalenyl)thioxomethyl]-L-proline], in assay [1], the inhibition at 10 µM was determined as 56% and the inhibition at 1 µM is 26%.
On the same counts, the results for `O=C(O)CN(CC(=O)O)C(=S)c1cccc2c(Br)cccc12` [R^1=CH2 COOH, R^2=H, R^3=5-Br, n=O, N-[(5-bromo-1-naphthalenyl)thioxomethyl]-N-(carboxymethyl)glycine] are 46% and 7%.
Turning to `O=C(O)CN(C(=S)c1cccc2c(Br)cccc12)c1ccc(Cl)cc1` [R^1=4-Cl--C6 H4, R^2=H, R^3=5-Br, n=O, N-[(5-bromo-1-naphthalenyl)thioxomethyl]-N-(4-chlorophenyl)glycine], in assay [1], the inhibition at 10 µM amounted to 86%, the inhibition at 1 µM came to 80% and the inhibition at 0.1 µM was 39%.
Consider `O=C1NC(=O)[C@@]2(CCOc3ccc(F)cc32)N1` [sorbinil, (S)-6-Fluoro-2,3-dihydrospiro(4H-1-benzopyran-4,4'-imidazolidine)-2',5'-dione], for which the “inhibition of aldose reductase (in words)” value in assay [2] was “aldose reductase inhibiting properties”.
As to `COc1ccc(C(=S)N(C)CC(=O)O)c2cccc(S(=O)(=O)N(C)C)c12` [N-[[4-methoxy-5-(dimethylaminosulfonyl)-1-naphthalenyl]thioxomethyl]-N-methylglycine], in assay [1], the inhibition at 10 µM is 80%, the inhibition at 1 µM came to 35% and the inhibition at 0.1 µM was 6%.
`COc1c(Cl)cc(C(=S)N(C)CC(=O)O)c2cccc(S(=O)(=O)N(C)C)c12` [N-[[3-chloro-4-methoxy-5-(dimethylaminosulfonyl)-1-naphthalenyl]thioxomethyl]-N-methylglycine]: in assay [1], the inhibition at 10 µM stood at 91%, the inhibition at 1 µM turned out to be 67% and the inhibition at 0.1 µM turned out to be 19%.
On to `O=C(O)CN1C(=O)c2cccc3cccc(c23)C1=O` [1,3-Dioxo-1H-benz[de]isoquinoline-2(3H)-acetic acid], for which the “inhibition of aldose reductase (in words)” value in assay [2] is “effective inhibitor of aldose reductase”.
